ChEMBL document CHEMBL1201862, “PubChem BioAssay data set” (2004)
Active and inactive are the calls of the source. Rule as the data show it, for most assays here: actives have a measured EC50 and inactives only a lower limit. Peptide text beside a SMILES is read from it. * marks the point of attachment. Cbz = O=C(OCc1ccccc1)*

Assays:
Streptokinase A = target: T1, Streptokinase A (Streptococcus pyogenes serotype M1, UniProt P10520); assay: S. pyogenes streptokinase expression inhibitors, potency, dose response, plasminogen activation absorbance, OD405 (AID 1914); format: functional, Streptococcus pyogenes M1 GAS;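 also: secreted streptokinase activity via plasminogen activation per viability signal from cell pellet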
T1 sequence (P10520 whole entry): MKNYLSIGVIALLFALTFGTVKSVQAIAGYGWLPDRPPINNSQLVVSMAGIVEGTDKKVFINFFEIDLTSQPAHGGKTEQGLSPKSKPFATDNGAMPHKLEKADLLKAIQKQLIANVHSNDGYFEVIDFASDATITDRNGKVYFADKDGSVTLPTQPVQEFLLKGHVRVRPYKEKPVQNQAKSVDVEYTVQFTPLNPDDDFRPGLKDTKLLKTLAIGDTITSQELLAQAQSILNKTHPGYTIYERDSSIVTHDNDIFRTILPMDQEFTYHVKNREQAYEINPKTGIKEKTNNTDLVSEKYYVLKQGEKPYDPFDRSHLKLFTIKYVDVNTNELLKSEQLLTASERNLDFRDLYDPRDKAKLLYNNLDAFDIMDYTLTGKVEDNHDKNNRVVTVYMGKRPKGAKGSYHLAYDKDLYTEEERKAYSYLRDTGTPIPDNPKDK

[1] = cytotoxicity toward NIH3T3 fibroblasts, dose response, counter-screen, cell-based, ATP luminescence, mouse fibroblasts (AID 2010); format: functional;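 also: cells exposed to compound for about 90 hours before reading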
[2] = inhibitors of intracellular T. cruzi replication, confirmation, NIH3T3 host cells, beta-gal luminescence (AID 2044); format: functional, cell-based;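 also: intracellular parasites grown in NIH/3T3 mouse fibroblasts as host cells; luminescent beta-galactosidase reporter signal from transgenic T. cruzi replicating inside host cells; inhibitors lower the luminescence signal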
[3] = target: T2, Corticotropin-releasing factor receptor 2/Corticotropin-releasing factor-binding protein (Homo sapiens, UniProt P24387+Q13324); assay: activators of CRF receptor 2 with binding protein – uHTS hits, confirmation (AID 602473); format: functional; conditions: read-out: EC50_Mean
T2 sequence (Q13324 whole entry): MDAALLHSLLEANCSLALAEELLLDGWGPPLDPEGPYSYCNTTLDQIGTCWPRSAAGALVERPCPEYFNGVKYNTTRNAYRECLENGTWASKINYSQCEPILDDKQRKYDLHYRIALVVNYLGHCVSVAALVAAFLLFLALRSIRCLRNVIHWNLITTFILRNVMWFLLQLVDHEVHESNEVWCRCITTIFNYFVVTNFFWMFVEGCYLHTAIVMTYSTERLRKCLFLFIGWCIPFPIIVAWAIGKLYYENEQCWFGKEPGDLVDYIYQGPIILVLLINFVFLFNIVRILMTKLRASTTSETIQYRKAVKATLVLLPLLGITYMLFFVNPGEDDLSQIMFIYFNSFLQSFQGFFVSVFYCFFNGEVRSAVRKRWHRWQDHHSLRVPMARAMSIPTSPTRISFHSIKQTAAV
T2 sequence (P24387 whole entry): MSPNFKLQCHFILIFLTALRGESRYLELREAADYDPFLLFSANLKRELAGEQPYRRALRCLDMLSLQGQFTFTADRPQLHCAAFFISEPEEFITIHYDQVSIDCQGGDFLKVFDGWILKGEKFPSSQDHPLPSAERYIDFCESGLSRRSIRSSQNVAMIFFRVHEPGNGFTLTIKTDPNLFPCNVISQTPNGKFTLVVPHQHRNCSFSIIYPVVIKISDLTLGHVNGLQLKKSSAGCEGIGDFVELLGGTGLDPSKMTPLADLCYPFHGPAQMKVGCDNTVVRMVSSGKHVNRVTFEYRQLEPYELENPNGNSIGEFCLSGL

[4] = target: T2, Corticotropin-releasing factor receptor 2/Corticotropin-releasing factor-binding protein; assay: Dose Response confirmation of uHTS hits for small molecule antagonists of the CRF-binding protein and CRF-R2 receptor complex.; format: functional; conditions: read-out: IC50_Mean
Cytochrome P450 2C9 = Cytochrome P450 2C9 (Homo sapiens, UniProt P11712)
Streptococcus = assay: Group A Streptococcus viability loss, dose response, counter-screen for streptokinase expression inhibitor project, luminescence, BacTiterGlo (AID 1915); format: functional, organism-based;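 also: potency for reduction of bacterial viability or growth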
[5] = test system: Streptococcus sp. 'group A'; assay: growth inhibition of control SK(-) GAS strain, dose response, counter-screen for streptokinase expression inhibitor project, luminescence, kanamycin, BacTiterGlo, confirmation (AID 1900); format: functional, organism-based
Cytochrome P450 3A4 = Cytochrome P450 3A4 (Homo sapiens, UniProt P08684);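 also: CYP3A4 tested as one member of a cytochrome P450 panel screen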
Paired box protein Pax-8 = Paired box protein Pax-8 (Homo sapiens, UniProt Q06710); assay: inhibitors of PAX8-driven TPO luciferase reporter, dose response, RMG-I cells, cherry-pick (AID 687027); format: functional, cell-based;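 also: luciferase reporter driven by Pax8 target thyroperoxidase promoter measured by SteadyGlo luminescence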
Sequence of Paired box protein Pax-8 (Q06710 whole entry): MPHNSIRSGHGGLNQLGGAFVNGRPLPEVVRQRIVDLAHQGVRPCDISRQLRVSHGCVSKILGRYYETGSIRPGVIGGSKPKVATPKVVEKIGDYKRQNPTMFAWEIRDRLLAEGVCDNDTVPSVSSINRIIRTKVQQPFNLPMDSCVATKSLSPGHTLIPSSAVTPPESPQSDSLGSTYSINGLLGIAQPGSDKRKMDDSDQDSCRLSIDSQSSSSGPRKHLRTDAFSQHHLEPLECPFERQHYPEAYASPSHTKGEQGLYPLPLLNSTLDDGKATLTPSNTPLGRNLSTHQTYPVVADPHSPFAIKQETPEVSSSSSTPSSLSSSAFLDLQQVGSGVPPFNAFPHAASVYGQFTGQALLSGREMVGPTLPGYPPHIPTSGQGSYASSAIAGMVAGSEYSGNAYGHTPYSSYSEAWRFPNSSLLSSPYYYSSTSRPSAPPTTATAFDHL

Sequence of Cytochrome P450 3A4 (P08684 whole entry): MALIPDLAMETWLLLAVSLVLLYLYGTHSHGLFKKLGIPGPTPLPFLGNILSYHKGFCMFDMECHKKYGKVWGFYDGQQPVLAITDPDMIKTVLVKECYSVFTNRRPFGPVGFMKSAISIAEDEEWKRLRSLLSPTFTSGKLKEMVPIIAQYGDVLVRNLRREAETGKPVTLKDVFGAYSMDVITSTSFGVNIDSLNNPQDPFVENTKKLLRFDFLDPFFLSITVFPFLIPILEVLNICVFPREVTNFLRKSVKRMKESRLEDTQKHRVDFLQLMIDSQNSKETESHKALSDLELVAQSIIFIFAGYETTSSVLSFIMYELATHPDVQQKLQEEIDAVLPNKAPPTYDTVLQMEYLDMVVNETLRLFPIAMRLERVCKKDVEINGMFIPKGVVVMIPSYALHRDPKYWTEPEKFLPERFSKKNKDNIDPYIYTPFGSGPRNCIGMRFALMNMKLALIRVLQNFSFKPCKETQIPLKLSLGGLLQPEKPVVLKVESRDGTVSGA
Sequence of Cytochrome P450 2C9 (P11712 whole entry): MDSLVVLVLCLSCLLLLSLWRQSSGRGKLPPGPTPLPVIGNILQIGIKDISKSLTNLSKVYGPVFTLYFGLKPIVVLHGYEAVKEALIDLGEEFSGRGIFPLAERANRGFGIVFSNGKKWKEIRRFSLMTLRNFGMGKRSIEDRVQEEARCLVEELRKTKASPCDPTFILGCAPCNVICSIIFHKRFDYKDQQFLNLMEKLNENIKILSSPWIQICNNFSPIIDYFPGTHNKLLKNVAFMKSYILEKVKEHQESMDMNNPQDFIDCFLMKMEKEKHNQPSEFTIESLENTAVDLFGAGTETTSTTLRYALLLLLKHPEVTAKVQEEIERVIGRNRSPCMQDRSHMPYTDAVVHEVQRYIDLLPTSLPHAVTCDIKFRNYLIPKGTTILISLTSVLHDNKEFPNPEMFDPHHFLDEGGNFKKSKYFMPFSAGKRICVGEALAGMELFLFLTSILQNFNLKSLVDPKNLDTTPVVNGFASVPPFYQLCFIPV

O=c1[nH]c2ccc(Cl)cc2c(-c2ccccc2)c1N1CCN(c2ccccn2)CC1
EC50 (Streptokinase A): 3.83 µM (active)

Clc1ccc2c(N/N=C/c3cccnc3)ccnc2c1
EC50 [1]: > 60 µM (not active)
EC50 [2]: 0.931 µM (active)

Cc1noc(C)c1CSc1nc2sc(C)c(C)c2c(=O)n1-c1ccccc1
EC50 [1]: > 60 µM (not active)
EC50 [2]: 1.02 µM (active)

C=CCc1cccc(/C=N/NC(=O)C(C)Nc2cccc(C)c2)c1O (configuration not stated)
EC50 [1]: > 30 µM (not active)
EC50 [2]: 1.84 µM (active)

COc1ccc(C(=O)OCC(=O)N(C)C2CCS(=O)(=O)C2)cc1S(=O)(=O)N(C)Cc1ccccc1 (configuration not stated)
EC50 [3]: > 53 µM (inactive)
IC50 [4]: > 47.1 µM (inactive)

COc1ccc(NS(=O)(=O)c2cc(-c3nnnn3C)ccc2OC)cc1
AC50 (Cytochrome P450 2C9): 25.1 µM (inconclusive)

O=S(=O)(NCc1ccccc1)c1ccccc1NCCc1ccccc1
EC50 [3]: > 53 µM (inactive)
IC50 [4]: > 47.1 µM (inactive)

CCOc1ccc(Nc2nc(N3CCCC3)nc(N3CCN(c4ccc(OC)cc4)CC3)n2)cc1
EC50 [1]: > 60 µM (not active)
EC50 [2]: 2.73 µM (active)

CCCNCCC(c1ccco1)c1ccccc1OC (configuration not stated)
EC50 [3]: > 53 µM (inactive)
IC50 [4]: > 47.1 µM (inactive)

O=C(N/N=C/c1ccc(-c2cccc(C(F)(F)F)c2)o1)c1cccc(F)c1
EC50 [1]: > 60 µM (not active)
EC50 [2]: 1.15 µM (active)

C[C@@H](C(=O)O)c1ccc(C(=O)c2cccs2)cc1 [(R)-SUPROFEN]
AC50 (Cytochrome P450 2C9): 12.6 µM (inconclusive)

CCn1/c(=N\C(=O)CS(=O)(=O)c2ccc(C)cc2)sc2cccc(OC)c21
EC50 [1]: 8.46 µM (active)
EC50 [2]: 1.2 µM (active)

COc1ccc(N2CCN(C3CCCCC3NS(=O)(=O)c3ccc(Cl)cc3)CC2)cc1 (configuration not stated)
EC50 [3]: 4.33 µM (active)

COc1ccc(/C=C/c2ccc3cccc(O)c3n2)cc1Br
EC50 (Streptococcus): 13.5 µM (active)
EC50 (Streptokinase A): > 150 µM (not active)
EC50 [5]: 0.796 µM (active)

OC(COc1cccc2ccccc12)CN1CCN(c2cccc(Cl)c2)CC1 (configuration not stated)
EC50 (Streptococcus): 31 µM (active)
EC50 (Streptokinase A): 20.1 µM (active)
EC50 [5]: 15.5 µM (active)

O=C(CCC(=O)N1CCOc2ccc(Cl)cc21)NCc1ccccc1
EC50 [3]: > 53 µM (inactive)

CC(C)(CNC(=O)c1cc(Cl)c(O)c(Cl)c1)N1CCCCC1
EC50 [3]: > 53 µM (inactive)
IC50 [4]: > 47.1 µM (inactive)

COCCNC(=O)CN(CC1CCCO1)C(=O)CCC(=O)Nc1ccccn1 (configuration not stated)
EC50 [3]: > 53 µM (inactive)
IC50 [4]: > 47.1 µM (inactive)

N#CCCn1c(=O)c(-c2ccccc2)nc2cnc(Oc3ccccc3)nc21
AC50 (Cytochrome P450 2C9): 15.8 µM (inconclusive)

COc1cc(CN2CCN(C(=O)CC(C)C)CC2)cc(OC)c1OC
AC50 (Cytochrome P450 2C9): 28.2 µM (inconclusive)

Cc1nnc2n(Cc3ccccc3)c(=O)c3c4c(sc3n12)COC(C)(C)C4
EC50 [3]: > 53 µM (inactive)
IC50 [4]: > 47.1 µM (inactive)

O=C1CC(NS(=O)(=O)c2ccc([N+](=O)[O-])cc2)CN1c1ccc(Cl)cc1 (configuration not stated)
EC50 [1]: > 60 µM (not active)
EC50 [2]: 0.477 µM (active)

Cc1[nH]cnc1C(=O)N/N=C/c1ccc([N+](=O)[O-])s1
EC50 (Streptococcus): 5.18 µM (active)
EC50 [1]: > 60 µM (not active)
EC50 [2]: 0.449 µM (active)
EC50 [5]: 2.91 µM (active)

Cc1cc(C)n(-c2nc(SCCN(C)C)c3c4c(sc3n2)COC(C)(C)C4)n1
EC50 [1]: > 30 µM (not active)
EC50 [2]: 0.836 µM (active)

Cc1ccc2nc(Cl)c(/C=C/C(=O)c3ccco3)cc2c1
EC50 [3]: > 53 µM (inactive)
IC50 [4]: > 47.1 µM (inactive)

CN1CCN(c2nc(N3CCN(c4ccccc4)CC3)ncc2F)CC1
EC50 [1]: > 30 µM (not active)
EC50 [2]: 0.253 µM (active)

CC1CC1c1ccc(/C=C(\C#N)C(=O)Nc2cccc(Cl)c2Cl)o1 (configuration not stated)
EC50 [3]: > 53 µM (inactive)

Cn1nc([N+](=O)[O-])nc1Oc1ccccc1C(=O)N1CCOCC1
EC50 [1]: > 60 µM (not active)
EC50 [2]: 0.117 µM (active)

CCOC(=O)C1=C(CCc2ccccc2)NC(=O)NC1c1cccc([N+](=O)[O-])c1 (configuration not stated)
EC50 [3]: > 53 µM (inactive)
IC50 [4]: > 47.1 µM (inactive)

CC(C)[C@H](NC(=O)OCc1ccccc1)C(=O)N[C@H](C=O)Cc1ccccc1 (Cbz-Val-Phe-aldehyde)
AC50 (Cytochrome P450 2C9): 39.8 µM (inconclusive)

Cc1ccc(NC(=O)CN(c2ccc(Cl)cc2)S(=O)(=O)c2cc([N+](=O)[O-])ccc2Cl)c(C)c1
EC50 [1]: > 60 µM (inconclusive)
EC50 [2]: 2.42 µM (active)

O=C(CCNS(=O)(=O)c1cccs1)N1CCc2ccccc2C1
AC50 (Cytochrome P450 3A4): 14.1 µM (inconclusive)

Fc1ccc(Cn2nnnc2C(c2ccc(Cl)cc2)N2CC=C(c3ccc(F)cc3)CC2)cc1 (configuration not stated)
EC50 [1]: > 60 µM (not active)
EC50 [2]: 1.34 µM (active)

O=C(c1cnn2c(C(F)(F)F)cc(-c3cccs3)nc12)N1CCN(Cc2ccccc2)CC1
EC50 [1]: > 60 µM (not active)
EC50 [2]: 0.721 µM (active)

Cc1ccc(OCC(=O)Nc2ccc(S(=O)(=O)Nc3onc(C)c3C)cc2)cc1
AC50 (Cytochrome P450 3A4): 35.5 µM (inconclusive)

O=C(CSc1nnc(CNc2ccc(F)cc2)o1)OC1CCCCC1
AC50 (Cytochrome P450 2C9): 17.8 µM (inconclusive)

Cc1c(C(=O)Nc2nc3ccccc3[nH]2)oc2ccc(Br)cc12
EC50 [1]: > 60 µM (not active)
EC50 [2]: 1.63 µM (active)

O=[N+]([O-])c1nn(-c2ccc3c(c2)OCCO3)[n+]([O-])c1NC1CCCC1
EC50 [1]: > 30 µM (not active)
EC50 [2]: 0.88 µM (active)

C[C@@H]1CN([C@@H](C)CO)C(=O)c2cc(NC(=O)Nc3ccc(C(F)(F)F)cc3)ccc2O[C@@H](C)CCCCO[C@@H]1CN(C)Cc1ccncc1
AC50 (Paired box protein Pax-8): 9.03 µM (active)

Cc1cccc(CN2CCN(CC(=O)O)C2=O)c1
AC50 (Cytochrome P450 3A4): 15.8 µM (inconclusive)

Cc1ccc(CN2CCN(Cc3nc4c(s3)CCCC4)CC2CCO)cc1 (configuration not stated)
EC50 [1]: > 60 µM (not active)
EC50 [2]: 0.546 µM (active)

Cc1cc(O)ccc1N1C(=O)c2cccc3cc([N+](=O)[O-])cc(c23)C1=O
EC50 [1]: > 60 µM (not active)
EC50 [2]: 0.234 µM (active)

CCCC(=O)NC(=S)Nc1ccc(S(=O)(=O)Nc2ccc(OCC)cc2)cc1
EC50 [3]: > 53 µM (inactive)

COc1cc(CNCc2ccncc2)cc(Br)c1OCc1ccccc1F
EC50 [1]: > 30 µM (not active)
EC50 [2]: 2.83 µM (active)

N=C(N)SCc1cccc(-c2nc3ccccc3c(=O)o2)c1
AC50 (Cytochrome P450 2C9): 5.01 µM (inconclusive)

O=C(OCCN1C(=O)c2ccccc2C1=O)c1cccc(OC(F)F)c1
EC50 [3]: > 53 µM (inactive)
IC50 [4]: > 47.1 µM (inactive)

CN1CCN(C(CNC(=O)C(=O)Nc2ccc3c(c2)OCCO3)c2ccc(F)cc2)CC1 (configuration not stated)
EC50 [1]: > 60 µM (not active)
EC50 [2]: 0.952 µM (active)

O=c1c(-c2cccc(Cl)c2)nc2cncnc2n1C1CC1
AC50 (Cytochrome P450 3A4): 15.8 µM (inconclusive)

CO[C@H]1C[C@@H](O[C@@H]2[C@H](C)[C@H](O[C@@H]3O[C@@H](C)C[C@@H](N(C)C)[C@@H]3O)[C@H](C)C[C@]3(CO3)C(=O)[C@H](C)[C@H](O)[C@H](C)[C@H](C)OC(=O)[C@@H]2C)O[C@@H](C)[C@H]1O
AC50 (Cytochrome P450 3A4): 12.6 µM (inconclusive)

Cc1nnsc1C(=O)NC1CCCc2c1cnn2-c1ccc(C(C)(C)C)cc1 (configuration not stated)
EC50 [1]: > 60 µM (not active)
EC50 [2]: 1.98 µM (active)

COc1c(CC=C(C)C)cc(C2CC(=O)c3c(O)cc(O)cc3O2)c(CC=C(C)C)c1O (configuration not stated)
EC50 (Streptococcus): 2.9 µM (active)
EC50 [5]: 3.02 µM (active)

Cc1[nH]c(C)c(S(=O)(=O)NCCc2ccccc2)c1C(=O)N1CCCCC1
EC50 [3]: > 53 µM (inactive)
IC50 [4]: > 47.1 µM (inactive)

CC(C)CCN=C(S)NC1CCCC1
AC50 (Cytochrome P450 3A4): 22.4 µM (inconclusive)
AC50 (Cytochrome P450 2C9): 39.8 µM (inconclusive)
